{"source": "patent US20250340551A1", "about": "“SMALL MOLECULE MODULATORS OF STAT6” (Gilead Sciences, Inc., priority 2024, published 2025)", "data": [{"test_system": "Eotaxin-3 (CCL26) release in human whole blood stimulated with IL-4", "test": "Human whole blood eotaxin-3 assay (IL-4 stimulated, Eotaxin-3 release)", "type": "cell-based", "conditions": "Homo sapiens, 48 h", "protocol": "(§1) This was a human whole blood assay using recombinant human Interleukin 4 to stimulate the blood and measuring the ability of the test compounds to inhibit eotaxin-3 release. The biological activities of the test compounds have been tested in human whole blood stimulated with IL-4 measuring Eotaxin-3 release. The test compounds were added to 384 well clear flat-bottom plate in a 4-fold serial dilution in triplicates using a liquid handler. Human whole blood stabilized in lithium-heparin tubes was added in a volume of 65 μL per well, resulting in a final DMSO concentration of 0.5%. The plate is incubated for 2 h at 37° C. under 5% CO2/95% air. Subsequently, 5 μL of recombinant human IL-4 (R&D Systems, cat #204-ILB) was added to the wells to a final concentration of 400 pM. The plate was incubated for 48 h at 37° C. under 5% CO2/95% air. The plate was spun down for 10 minutes at 500×g and 20 μL supernatant was harvested and transferred to a 384 well v-bottom plate using a liquid handler and stored at −20° C. until further analysis. 10 μL supernatant was used to measure the level of Eotaxin-3 (CCL26) using Human Eotaxin-3 MSD kit from Mesocsale (Cat #K251UEK-4). The assay was performed according to the manufacture instructions.\n(§2) The data from the human whole blood eotaxin-3 assay is shown below for Examples 1u2, 1x1, 1af26, and 1af36 (where the effect in % is plotted against the test concentration in M on a log-scale).", "units": {"Emax": "%"}, "values": [{"smiles": "[2H]C([2H])([2H])N(C(=O)c1ccc(C2=CCN(Cc3cc4c(-c5ccc(N)nc5)ccnc4n3C)CC2)nn1)C([2H])([2H])[2H]", "note": "[Example 1z4, 6-(1-((4-(6-aminopyridin-3-yl)-1-methyl-1H-pyrrolo[2,3-b]pyridin-2-yl)methyl)-1,2,3,6-tetrahydropyridin-4-yl)-N,N-bis(methyl-d3)pyridazine-3-carboxamide]", "Emax": "20 to 30"}, {"smiles": "Cc1cc(C2=CCN(Cc3cc4c(-c5ccc(N)nc5)ccnc4n3C)CC2)ccc1C(=O)N(C)C", "note": "[Example 1z5, 4-(1-((4-(6-aminopyridin-3-yl)-1-methyl-1H-pyrrolo[2,3-b]pyridin-2-yl)methyl)-1,2,3,6-tetrahydropyridin-4-yl)-N,N,2-trimethylbenzamide]", "Emax": "30 to 40"}, {"smiles": "Cc1cc(C(=O)N(C)C)nnc1C1=CCN(Cc2cc3c(-c4ccc(N)nc4)ccnc3n2C)CC1", "note": "[Example 1z6, 6-(1-((4-(6-aminopyridin-3-yl)-1-methyl-1H-pyrrolo[2,3-b]pyridin-2-yl)methyl)-1,2,3,6-tetrahydropyridin-4-yl)-N,N,5-trimethylpyridazine-3-carboxamide]", "Emax": "< 20"}, {"smiles": "CN(C)C(=O)c1ccc(C2=CCN(Cc3cc4c(-c5ccc(N)nc5)ccnc4n3C)CC2)cc1F", "note": "[Example 1z7, 4-(1-((4-(6-aminopyridin-3-yl)-1-methyl-1H-pyrrolo[2,3-b]pyridin-2-yl)methyl)-1,2,3,6-tetrahydropyridin-4-yl)-2-fluoro-N,N-dimethylbenzamide]", "Emax": "20 to 30"}, {"smiles": "[2H]C([2H])([2H])N(C(=O)c1cnc(C2=CCN(Cc3cc4c(-c5cnc(N)cc5F)ccnc4n3C)CC2)nc1)C([2H])([2H])[2H]", "note": "[Example 1z11, 2-(1-((4-(6-amino-4-fluoropyridin-3-yl)-1-methyl-1H-pyrrolo[2,3-b]pyridin-2-yl)methyl)-1,2,3,6-tetrahydropyridin-4-yl)-N,N-bis(methyl-d3)pyrimidine-5-carboxamide]", "Emax": "20 to 30"}, {"smiles": "[2H]C([2H])([2H])N(C(=O)c1cnc(C2=CCN(Cc3cc4c(-c5ccc(N)nc5C#N)ccnc4n3C)CC2)nc1)C([2H])([2H])[2H]", "note": "[Example 1z15, 2-(1-((4-(6-amino-2-cyanopyridin-3-yl)-1-methyl-1H-pyrrolo[2,3-b]pyridin-2-yl)methyl)-1,2,3,6-tetrahydropyridin-4-yl)-N,N-bis(methyl-d3)pyrimidine-5-carboxamide]", "Emax": "< 20"}, {"smiles": "CN(C)C(=O)c1ncc(C2=CCN(Cc3cc4c(-c5ccc(N)nn5)ccnc4n3C)CC2)cn1", "note": "[Example 1z21, 5-(1-((4-(6-aminopyridazin-3-yl)-1-methyl-1H-pyrrolo[2,3-b]pyridin-2-yl)methyl)-1,2,3,6-tetrahydropyridin-4-yl)-N,N-dimethylpyrimidine-2-carboxamide]", "Emax": "20 to 30"}, {"smiles": "CN(C)C(=O)c1ccc(C2CCN(Cc3cc4c(-c5ccc(N)nn5)ccnc4n3C)CC2)cc1", "note": "[Example 1z22, 4-(1-((4-(6-aminopyridazin-3-yl)-1-methyl-1H-pyrrolo[2,3-b]pyridin-2-yl)methyl)piperidin-4-yl)-N,N-dimethylbenzamide]", "Emax": "< 20"}]}, {"test_system": "Eotaxin-3 (CCL26) release in human whole blood stimulated with IL-4", "test": "Human whole blood eotaxin-3 assay (IL-4 stimulated, Eotaxin-3 release)", "type": "cell-based", "conditions": "Homo sapiens, Hec50, 48 h", "protocol": "as §1, §2", "units": {"EC50": "nM"}, "values": [{"smiles": "[2H]C([2H])([2H])N(C(=O)c1ccc([C@@H]2CCN(Cc3cc4c(-c5ccc(N)cn5)ccnc4n3C)[C@H](C)C2)cc1)C([2H])([2H])[2H]", "note": "[Example 1z9, 4-((2R,4R)-1-((4-(5-aminopyridin-2-yl)-1-methyl-1H-pyrrolo[2,3-b]pyridin-2-yl)methyl)-2-methylpiperidin-4-yl)-N,N-bis(methyl-d3)benzamide]", "EC50": 167}, {"smiles": "CN(C)C(=O)c1ccc(C2=CCN(Cc3cc4c(-c5ccc(N)nc5)ccnc4n3C)CC2)c(C#N)c1", "note": "[Example 1z10, 4-(1-((4-(6-aminopyridin-3-yl)-1-methyl-1H-pyrrolo[2,3-b]pyridin-2-yl)methyl)-1,2,3,6-tetrahydropyridin-4-yl)-3-cyano-N,N-dimethylbenzamide]", "EC50": 473}, {"smiles": "Cc1cc(C(=O)N(C)C)cc(C)c1C1=CCN(Cc2cc3c(-c4ccc(N)nn4)ccnc3n2C)CC1", "note": "[Example 1z12, 4-(1-((4-(6-aminopyridazin-3-yl)-1-methyl-1H-pyrrolo[2,3-b]pyridin-2-yl)methyl)-1,2,3,6-tetrahydropyridin-4-yl)-N,N,3,5-tetramethylbenzamide]", "EC50": 57}, {"smiles": "Cc1cc(C(=O)N(C)C)cc(F)c1C1=CCN(Cc2cc3c(-c4ccc(N)nn4)ccnc3n2C)CC1", "note": "[Example 1z14, 4-(1-((4-(6-aminopyridazin-3-yl)-1-methyl-1H-pyrrolo[2,3-b]pyridin-2-yl)methyl)-1,2,3,6-tetrahydropyridin-4-yl)-3-fluoro-N,N,5-trimethylbenzamide]", "EC50": 37.8}, {"smiles": "CN(C)C(=O)c1cc(F)c(C2=CCN(Cc3cc4c(-c5ccc(N)nc5)ccnc4n3C)CC2)c(F)c1", "note": "[Example 1z16, 4-(1-((4-(6-aminopyridin-3-yl)-1-methyl-1H-pyrrolo[2,3-b]pyridin-2-yl)methyl)-1,2,3,6-tetrahydropyridin-4-yl)-3,5-difluoro-N,N-dimethylbenzamide]", "EC50": 335}, {"smiles": "CN(C)C(=O)c1cc(F)c(C2=CCN(Cc3cc4c(-c5ccc(N)cn5)ccnc4n3C)CC2)c(F)c1", "note": "[Example 1z17, 4-(1-((4-(5-aminopyridin-2-yl)-1-methyl-1H-pyrrolo[2,3-b]pyridin-2-yl)methyl)-1,2,3,6-tetrahydropyridin-4-yl)-3,5-difluoro-N,N-dimethylbenzamide]", "EC50": 368}, {"smiles": "CN(C)C(=O)c1cc(F)c(C2=CCN(Cc3cc4c(-c5ccc(N)nn5)ccnc4n3C)CC2)c(F)c1", "note": "[Example 1z18, 4-(1-((4-(6-aminopyridazin-3-yl)-1-methyl-1H-pyrrolo[2,3-b]pyridin-2-yl)methyl)-1,2,3,6-tetrahydropyridin-4-yl)-3,5-difluoro-N,N-dimethylbenzamide]", "EC50": 204}, {"smiles": "[2H]C([2H])([2H])N(C(=O)c1cc(C)c(C2=CCN(Cc3cc4c(-c5ccc(N)nn5)ccnc4n3C)CC2)c(F)c1)C([2H])([2H])[2H]", "note": "[Example 1z20, 4-(1-((4-(6-aminopyridazin-3-yl)-1-methyl-1H-pyrrolo[2,3-b]pyridin-2-yl)methyl)-1,2,3,6-tetrahydropyridin-4-yl)-3-fluoro-5-methyl-N,N-bis(methyl-d3)benzamide]", "EC50": 53.3}, {"smiles": "CN(C)C(=O)c1ccc(C2=CCN(Cc3cc4c(-c5ccc(N)nc5)ccnc4n3C)CC2)c(C2CC2)c1", "note": "[Example 1z23, 4-(1-((4-(6-aminopyridin-3-yl)-1-methyl-1H-pyrrolo[2,3-b]pyridin-2-yl)methyl)-1,2,3,6-tetrahydropyridin-4-yl)-3-cyclopropyl-N,N-dimethylbenzamide]", "EC50": 853}, {"smiles": "Cc1cc(C(=O)N(C)C)cc(F)c1C1=CCN(C(C)c2cc3c(-c4ccc(N)nc4)ccnc3n2C)CC1", "note": "(stereo not drawn) [Example 1z28, 4-(1-(1-(4-(6-aminopyridin-3-yl)-1-methyl-1H-pyrrolo[2,3-b]pyridin-2-yl)ethyl)-1,2,3,6-tetrahydropyridin-4-yl)-3-fluoro-N,N,5-trimethylbenzamide]", "EC50": 21.6}, {"smiles": "Cc1cc(C(=O)N(C)C)cc(F)c1C1=CCN([C@@H](C)c2cc3c(-c4ccc(N)nc4)ccnc3n2C)CC1", "note": "[Example 1z29, (S)-4-(1-(1-(4-(6-aminopyridin-3-yl)-1-methyl-1H-pyrrolo[2,3-b]pyridin-2-yl)ethyl)-1,2,3,6-tetrahydropyridin-4-yl)-3-fluoro-N,N,5-trimethylbenzamide]", "EC50": 1060}, {"smiles": "Cc1cc(C(=O)N(C)C)cc(F)c1C1=CCN([C@H](C)c2cc3c(-c4ccc(N)nc4)ccnc3n2C)CC1", "note": "[Example 1z30, (R)-4-(1-(1-(4-(6-aminopyridin-3-yl)-1-methyl-1H-pyrrolo[2,3-b]pyridin-2-yl)ethyl)-1,2,3,6-tetrahydropyridin-4-yl)-3-fluoro-N,N,5-trimethylbenzamide]", "EC50": 10.2}, {"smiles": "Cc1cc(C(=O)N(C)C)cc(F)c1C1=CCN(C(C)c2cc3c(-c4ccc(N)cn4)ccnc3n2C)CC1", "note": "(stereo not drawn) [Example 1z31, 4-(1-(1-(4-(5-aminopyridin-2-yl)-1-methyl-1H-pyrrolo[2,3-b]pyridin-2-yl)ethyl)-1,2,3,6-tetrahydropyridin-4-yl)-3-fluoro-N,N,5-trimethylbenzamide]", "EC50": 62.8}, {"smiles": "Cc1cc(C(=O)N(C)C)cc(F)c1C1=CCN([C@@H](C)c2cc3c(-c4ccc(N)cn4)ccnc3n2C)CC1", "note": "[Example 1z32, (S)-4-(1-(1-(4-(5-aminopyridin-2-yl)-1-methyl-1H-pyrrolo[2,3-b]pyridin-2-yl)ethyl)-1,2,3,6-tetrahydropyridin-4-yl)-3-fluoro-N,N,5-trimethylbenzamide]", "EC50": 37.6}, {"smiles": "Cc1cc(C(=O)N(C)C)cc(F)c1C1=CCN([C@H](C)c2cc3c(-c4ccc(N)cn4)ccnc3n2C)CC1", "note": "[Example 1z33, (R)-4-(1-(1-(4-(5-aminopyridin-2-yl)-1-methyl-1H-pyrrolo[2,3-b]pyridin-2-yl)ethyl)-1,2,3,6-tetrahydropyridin-4-yl)-3-fluoro-N,N,5-trimethylbenzamide]", "EC50": 431}, {"smiles": "[2H]C([2H])([2H])N(C(=O)c1cc(C)c(C2=CCN(Cc3cc4c(-c5ccc(NC)nn5)ccnc4n3C)CC2)c(F)c1)C([2H])([2H])[2H]", "note": "[Example 1z34, 3-fluoro-5-methyl-N,N-bis(methyl-d3)-4-(1-((1-methyl-4-(6-(methylamino)pyridazin-3-yl)-1H-pyrrolo[2,3-b]pyridin-2-yl)methyl)-1,2,3,6-tetrahydropyridin-4-yl)benzamide]", "EC50": 132}]}]}
